Measured values from the NIST ThermoML archive (doi:10.1021/je0340248).

Columns and labels:
[1] = 101.33 kPa, Liquid
[2] = xn = mol fraction of the nth substance listed; conditions: 101 kPa, Liquid

OCCO [1,2-ethanediol]
[1]
Conditions	mass density [kg/m3]	speed of sound [m/s]	viscosity [mPa·s]
298.15 K	–	1662	14.82
303.15 K	1106.63	–	–
308.15 K	–	1635	10.48
313.15 K	1099.64	–	–

CC(O)CO (configuration not stated) [1,2-propanediol]
[1]
Conditions	mass density [kg/m3]	speed of sound [m/s]	viscosity [mPa·s]
298.15 K	1032.75	1492	43.43
303.15 K	1029.02	–	–
308.15 K	1025.4	1454	24.24
313.15 K	1021.53	–	–

CC(=O)OCCC(C)C [3-methylbutyl ethanoate]
[1]
Conditions	mass density [kg/m3]	speed of sound [m/s]	viscosity [mPa·s]
298.15 K	866.21	1195	0.781
303.15 K	861.05	–	–
308.15 K	855.85	1154	0.747
313.15 K	852.95	–	–

OCCOCCO [diethylene glycol] + COC(C)=O
[2]
Conditions	mass density, 298.15 K [kg/m3]	mass density, 303.15 K [kg/m3]	mass density, 308.15 K [kg/m3]	mass density, 313.15 K [kg/m3]	speed of sound, 298.15 K [m/s]	speed of sound, 308.15 K [m/s]	viscosity, 298.15 K [mPa·s]	viscosity, 308.15 K [mPa·s]
x2 = 0.0406	1107.83	1103.83	1100.41	1097.07	1562	1533	26.42	14.2
x2 = 0.1512	1091.77	1087.47	1083.89	1080.13	1513	1485	18.27	8.812
x2 = 0.2516	1076.55	1071.84	1068.15	1063.99	1472	1441	12.72	5.78
x2 = 0.3488	1061.26	1056.15	1052.35	1047.79	1431	1398	8.747	3.883
x2 = 0.44	1046.36	1040.88	1036.96	1032.05	1392	1357	6.023	2.698
x2 = 0.4926	1037.46	1031.79	1027.79	1022.69	1370	1334	4.811	2.196
x2 = 0.5504	1027.35	1021.49	1017.4	1012.1	1345	1308	3.728	1.757
x2 = 0.6509	1008.76	1002.63	998.36	992.71	1301	1260	2.345	1.203
x2 = 0.751	988.53	982.17	977.74	971.76	1258	1213	1.44	0.834
x2 = 0.8504	966.18	959.59	955.04	948.73	1214	1168	0.866	0.586
x2 = 0.9429	942.76	935.89	931.35	924.7	1174	1127	0.527	0.426

COC(C)=O [methyl ethanoate] + OCCO
[2]
Conditions	mass density, 298.15 K [kg/m3]	mass density, 303.15 K [kg/m3]	mass density, 308.15 K [kg/m3]	mass density, 313.15 K [kg/m3]	speed of sound, 298.15 K [m/s]	speed of sound, 308.15 K [m/s]	viscosity, 298.15 K [mPa·s]	viscosity, 308.15 K [mPa·s]
x1 = 0.0444	1100.26	1096.48	1092.85	1089.11	1627	1600	11.86	8.678
x1 = 0.1488	1077.91	1073.64	1070.12	1065.97	1550	1521	7.177	5.649
x1 = 0.2505	1056.96	1052.6	1049.33	1045.05	1482	1452	4.535	3.788
x1 = 0.3485	1037.61	1033.23	1030.22	1025.91	1424	1391	2.996	2.623
x1 = 0.4411	1020.06	1015.63	1012.78	1008.44	1374	1338	2.078	1.882
x1 = 0.4856	1011.89	1007.39	1004.56	1000.19	1351	1315	1.758	1.614
x1 = 0.5507	1000.2	995.55	992.71	988.26	1320	1282	1.39	1.296
x1 = 0.6503	982.94	977.9	974.92	970.21	1276	1237	0.994	0.941
x1 = 0.7489	966.49	960.93	957.65	952.55	1237	1196	0.734	0.697
x1 = 0.8498	950.22	944.03	940.33	934.64	1199	1157	0.554	0.522
x1 = 0.9453	935.24	928.45	924.26	917.85	1167	1122	0.435	0.404

OCCOCCOCCO [triethylene glycol] + CCCCOC(C)=O
[2]
Conditions	mass density, 298.15 K [kg/m3]	mass density, 303.15 K [kg/m3]	mass density, 308.15 K [kg/m3]	mass density, 313.15 K [kg/m3]	speed of sound, 298.15 K [m/s]	speed of sound, 308.15 K [m/s]	viscosity, 298.15 K [mPa·s]	viscosity, 308.15 K [mPa·s]
x2 = 0.0452	1108.89	1105.14	1101.13	1098.6	1586	1559	31.2	18.96
x2 = 0.1515	1083.49	1079.63	1075.41	1072.59	1524	1498	24.06	14.16
x2 = 0.2488	1060.06	1056.08	1051.65	1048.53	1470	1446	18.29	10.62
x2 = 0.3493	1035.73	1031.63	1026.98	1023.57	1420	1395	13.28	7.731
x2 = 0.4464	1012.14	1007.94	1003.07	999.41	1375	1350	9.402	5.575
x2 = 0.4953	1000.24	995.98	991.02	987.24	1355	1329	7.798	4.694
x2 = 0.5495	987.03	982.72	977.64	973.75	1334	1307	6.273	3.856
x2 = 0.6493	962.66	958.25	952.97	948.88	1298	1267	4.084	2.642
x2 = 0.7488	938.29	933.77	928.31	924.03	1265	1232	2.566	1.776
x2 = 0.8515	913.02	908.37	902.74	898.24	1233	1197	1.528	1.153
x2 = 0.9421	890.6	885.8	880.04	875.29	1207	1168	0.936	0.774

OCCOCCOCCO [triethylene glycol] + CCOC(C)=O
[2]
Conditions	mass density, 298.15 K [kg/m3]	mass density, 303.15 K [kg/m3]	mass density, 308.15 K [kg/m3]	mass density, 313.15 K [kg/m3]	speed of sound, 298.15 K [m/s]	speed of sound, 308.15 K [m/s]	viscosity, 298.15 K [mPa·s]	viscosity, 308.15 K [mPa·s]
x2 = 0.0466	1112.15	1108.39	1104.32	1101.76	1592	1567	30.14	18.65
x2 = 0.1482	1095.3	1091.27	1086.97	1084.07	1547	1523	22.05	13.71
x2 = 0.25	1077.4	1073.02	1068.55	1065.26	1499	1473	15.58	9.818
x2 = 0.3499	1058.65	1053.94	1049.34	1045.63	1452	1426	10.73	6.905
x2 = 0.4493	1038.63	1033.67	1028.96	1024.82	1408	1379	7.167	4.749
x2 = 0.4995	1027.95	1022.9	1018.12	1013.77	1386	1356	5.775	3.896
x2 = 0.5503	1016.71	1011.6	1006.75	1002.18	1363	1333	4.602	3.168
x2 = 0.6497	993.4	988.21	983.2	978.19	1318	1286	2.881	2.076
x2 = 0.749	968.18	962.95	957.73	952.29	1271	1236	1.748	1.329
x2 = 0.8503	940.27	934.9	929.41	923.53	1220	1181	1.015	0.823
x2 = 0.9417	913.03	907.33	901.55	895.28	1171	1130	0.604	0.523

OCCOCCOCCO [triethylene glycol] + COC(C)=O
[2]
Conditions	mass density, 298.15 K [kg/m3]	mass density, 303.15 K [kg/m3]	mass density, 308.15 K [kg/m3]	mass density, 313.15 K [kg/m3]	speed of sound, 298.15 K [m/s]	speed of sound, 308.15 K [m/s]	viscosity, 298.15 K [mPa·s]	viscosity, 308.15 K [mPa·s]
x2 = 0.0455	1115.19	1111.41	1107.51	1105.03	1598	1572	32.01	19.45
x2 = 0.1522	1103.73	1099.72	1095.8	1093.05	1559	1533	25.74	15.15
x2 = 0.2512	1091.78	1087.49	1083.5	1080.38	1521	1493	19.76	11.49
x2 = 0.3504	1078.53	1073.91	1069.84	1066.3	1482	1452	14.27	8.336
x2 = 0.4457	1064.43	1059.49	1055.35	1051.39	1446	1414	9.869	5.882
x2 = 0.49	1057.35	1052.25	1048.08	1043.93	1428	1396	8.158	4.935
x2 = 0.5519	1046.77	1041.46	1037.27	1032.85	1402	1369	6.128	3.806
x2 = 0.6512	1027.79	1022.13	1017.92	1013.08	1357	1323	3.687	2.422
x2 = 0.7516	1005.3	999.28	995.06	989.76	1305	1268	2.075	1.467
x2 = 0.8513	978.49	972.08	967.82	962.01	1246	1206	1.103	0.854
x2 = 0.9424	948.8	941.98	937.63	931.21	1188	1143	0.587	0.501
